The values below come from patent US20110027354A1, “ANTI-PA[…]” (priority 2008, published 2011).

One data set has as its system MPTP-treated mice. Put plainly: MPTP-induced hypolocomotion (locomotor activity). In kind it is in vivo. The note with it: for effect on MPTP-induced hypolocomotor activity: 2.5 mg/kg/i.p./day×9, vs. MPTP alone. On the procedure:
Locomotor activity measured for 30 min one day after the last MPTP administration using an automated video-tracking system (Noldus Information Technology, Wagenin, The Netherlands). Eight test boxes (40×40×30 cm high) were operated simultaneously by an IBM computer. Animals were studied individually during locomotion in each test box, where they were adapted for 5 min before starting the experiment. […] The distance traveled in cm by the animals in horizontal locomotor activity was analyzed. Data were collected and analyzed between 09:00 and 17:00 h (Kim et al., 2001).

Data set [1] has as its system tyrosine hydroxylase (TH). Put plainly: TH-immunoreactivity by immunocytochemistry. The data set is classed as in vivo, mice. To be noted: for effect on MPTP-induced decrease of TH-immunoreactivity (TH-IR): immunocytochemistry (ICC), vs. MPTP alone; for TH-immunoreactivity: drug alone (no MPTP). The procedure:
Animals were sacrified at 1 day after MPTP-treatment. They were anesthetized with 60% urethane and perfused transcardially with 200 ml of 50 mM phosphate buffered saline (PBS), followed by 50 ml of paraformaldehyde in PBS. The brain were fixed at 4° C. for 24 h in the same fixative and then cryoprotected in 30% sucrose. The brains were sectioned on a horizontal sliding microstome into 35 μm transverse free-floating sections.
The immunocytochemistry was performed as described previously (Kim et al., 2000a; Kim et al., 2000b). Briefly, prior to incubation with the primary antibodies, sections were preincubated with 0.3% hydrogen peroxide in PBS for 30 min (to block endogenous peroxidase activity), then in PBS containing 0.4% Triton X-100 for 20 min and 1% no: mal serum for 20 min. After a 48 h incubation with the primary antibody at 4° C., sections were incubated with the secondary biotinylated antisera (1:1000 dilution; Vector, Brulingame, Calif.) for 1 h, washed, and immersed in avidin-biotin-peroxidase complex (ABC Elite kit, Vector) for 1 hr. Sections were always washed three times with PBS between each incubation step. 3,3′-Diaminobenzidine (DAB) was used as the chromogen. The quantitative analyses were performed using a computer-based image analysis system (Optimas version 6.2; Neurolucida Program) (Kim et al., 1999).

Another data set deals with protein carbonyl. The data set can be described thus: Determination of protein carbonyl (Oxyblot assay). The data set is classed as in vivo, mice. To be noted: striatum; for protein carbonyl expression: drug alone (no MPTP); for effect on MPTP-induced increase in protein carbonyl expression: one day after final MPTP, vs. MPTP alone. On the procedure:
Total protein ([…]) was used to perform the Oxyblot assay. The amount of oxidized proteins was measured using the Oxyblot kit (Chemicon International, CA), following the manufacturer's instructions. Briefly, the protein carbonyl content was measured by first forming labeled protein hydrazone derivatives using 2,4-dinitrophenylhydrazide (DNP). The INP-derivatized protein samples were separated by polyacrylamide gel electrophoresis followed by Western blotting. Blots were then incubated with primary antibody specific to the DNP moiety, followed by incubation with a horseradish peroxidase-antibody conjugate directed against the primary antibody. The blots were then treated with chemiluminescent reagents (Amersham) (Gemma et al., 2004).

Another data set concerns mice. Put plainly: Conditioned place preference (CPP). The data set is classed as in vivo. The note with it: selegiline or MPPE 2.5 or 5.0 mg/kg i.p., MA 0.5 or 1.0 mg/kg i.p.; vs. saline. The procedure:
For conditioned place preference (CPP) test, mice received an i.p. injection of saline just before entering the […] compartment. MA (0.5 or 1.0 mg/kg, i.p.), selegiline (2.5 or 5.0 mg/kg, i.p.), and MPPE (2.5 or 5.0 mg/kg, i.p.) dissolved in saline was administered immediately before the mice were placed in the white compartment. On day 1, the mice were pre-exposed to the test apparatus for 15 minutes. The guillotine style doors were raised and mice were allowed to move freely between the two compartments. On day 2, the time each mouse spent in each compartment was recorded for 15 minutes. On days 3, 5, 7, 9, 11, and 13, the mice were injected with each drug before being confined to the white compartment, the non-preferred side, for 40 minutes. On day 14, the guillotine doors were raised. The mice were initially placed in the tunnel and the time spent by the mice in the two compartments was recorded for 15 minutes. The scores were calculated from the differences in the time spent in the white compartment in the testing and pre-testing phases. Data were analyzed between 09:00 and 17:00 hours.

On to `C#CCN(C)CCc1ccccc1` [MPPE, N-methyl-N-propynyl-2-phenylethylamine], for which, in the data set on MPTP-treated mice (2.5 mg/kg i.p., vs. selegiline+MPTP), the “attenuation of MPTP-induced hypolocomotor activity compared with selegiline” value is given as “more pronounced in the MPPE-pretreated mice than selegiline-pretreated case”. The “effect on MPTP-induced hypolocomotor activity” value in the data set with MPTP-treated mice is on record as “significantly attenuated”. For the same compound, the “effect on MPTP-induced decrease of TH-immunoreactivity (TH-IR)” value (from here on “effect on MPTP-induced decrease”) in data set [1] (SN) was “significantly attenuated”. The TH-immunoreactivity entry in data set [1] is on record as “did not show any significant effect”. The “attenuation of TH-IR decrease compared with selegiline” value in data set [1] (striatum and SN, ICC, vs. selegiline+MPTP) is “more evident”. In addition, the “effect on MPTP-induced decrease” value in data set [1] (striatum) was “attenuated”. In the data set with protein carbonyl, the protein carbonyl expression entry was “a little induction” and the “effect on MPTP-induced increase in protein carbonyl expression” value is given as “attenuated”. In the data set on protein carbonyl (vs. selegiline+MPTP), the “attenuation of protein carbonyl increase compared with selegiline” value was “appeared to be more underlined in the MPPE-pretreated mice”. In addition, in the data set with mice, the “conditioned place preference (CPP)” value is “did not significantly change”.

Turning to `C#CCN(C)[C@H](C)Cc1ccccc1` [selegiline, reference compound], the “effect on MPTP-induced hypolocomotor activity” value with MPTP-treated mice is on record as “significantly attenuated”. Moreover, the “effect on MPTP-induced decrease” value in data set [1] (SN) is “significantly attenuated”. Besides, the TH-immunoreactivity entry in data set [1] is on record as “did not show any significant effect”. For the same compound, the “effect on MPTP-induced decrease” value in data set [1] (striatum) is recorded as “attenuated”. Moreover, in the data set on protein carbonyl, the protein carbonyl expression entry was “a little induction” and the “effect on MPTP-induced increase in protein carbonyl expression” value is “attenuated”. Also, the “conditioned place preference (CPP)” value with mice was “significantly increased compared with saline”.
